In the test the test system is early stressed maternally deprived mice. Briefly: Serum stress hormones after acute restraint stress in maternally separated (early stressed) mice fed experimental diets. In kind it is in vivo, C57BL/6 mice. The procedure: In this Example, the effects of 2-fucosyl-lactose on the production of serum corticosterone in early stressed maternally deprived mice were analyzed. Initially, mice pups were early stressed using a model of maternal separation. Particularly, one day after delivery, C57BL/6 mice pups were sexed and grouped as sham (non-stressed Control group) or maternally separated (MS—stressed group) animals. From day 2 until day 14 after delivery, the MS pups were removed from the dam and kept isolated for a period of 4 hours per day, typically, from 10:00 AM to 2:00 PM, in a thermostatted cup. During the same time period, pups from the sham group were daily handled for a period of five minutes in order to receive the same grade of habituation to a researcher's hands as the MS pups. Each dam had litters of 4 males and 2 females. Females were allowed to stay with the mother, while males were maternally deprived in order to avoid stressing the dam by removing all of the pups. Additionally, pups from the MS group were prematurely weaned, and thus permanently removed from the dam, at postnatal day 17, whereas sham pups were not weaned until postnatal day 21. At postnatal day 22, all pups in the MS group were pooled and four experimental groups were made before starting nutritional intervention. [table] At the nutritional intervention stage, mice were fed experimental diets for a period of eight weeks. After eight weeks, blood samples were taken from facial veins of the mice in order to measure basal stress hormones (i.e., corticosterone, adrenocorticotropic hormone (ACTH), and melatonin). Stress hormones were measured using luminex technology using a multiplex commercial kit (commercially available from Millipore Corporation, Billerica, Mass.) Seven days later, mice were submitted to an acute stress by restraint protocol. Particularly, mice were placed into a multi-drilled 50-ml centrifuge tube for 20 minutes. After this time, mice were extracted from the tube, and again, blood samples were taken in order to measure serum stress hormones immediately after the acute stressful event (i.e., restraint).

Where [1] appears, read: MS-stressed mice, supplemented diet about 7 mg/mouse/day, post-restraint, stated for any of the experimental groups.

With 2-fucosyl-lactose [2-fucosyllactose], where the note is “AIN93G diet with about 7 mg/mouse/day for eight weeks, blood taken immediately after 20 minutes restraint, Group C vs MS control Group D”, the “serum corticosterone levels in response to restraint, compared with MS mice on the control diet” value is “significantly lower”. The “serum corticosterone levels in response to restraint, compared with normal sham mice” value (MS-stressed mice, AIN93G diet with about 7 mg/mouse/day for eight weeks, blood taken immediately after 20 minutes restraint, Group C vs sham Group E) was “equal that of the normal sham mice”. In addition, under setting [1], the “ACTH serum levels post-restraint” value is reported as “no effects” and the “melatonin serum levels post-restraint” value is on record as “no effects”.

The values above are taken from patent publication US20210401862A1, “METHODS FOR MODULATING CORTICOSTERONE LEVELS IN PSYCHOLOGICALLY STRESSED INDIVIDUALS” (ABBOTT LABORATORIES, priority 2012, published 2021).
